Where a SMILES comes first, the peptide text is derived from it. The star is where a group is joined. Cbz = O=C(OCc1ccccc1)*
Assays:
[1] = tested on: Colo205; assay: SRB assay, colon cancer cell growth inhibition; type: cell-based; settings: Homo sapiens, COLO 205, 48 h
Procedure: (§1) A series of 4-phenyl-N-(thieno[2,3-b]pyrazin-3-yl)piperazine-1-carboxamides derivatives 7a–7i were tested for the colon cancer cell growth inhibition effect using the SRB assay (Table 2). […] Compounds 7a and 7b, containing chlorine at the C6 position of thieno[2,3-b]pyrazine ring, have weaker anticancer activity than its proton-containing derivatives 7c–7i. On the other hand, 7c has shown higher inhibition activity than 7d with methyl substituents at the C3 and C5 positions of the phenyl ring. […] Substitutions with one fluorine atom in the phenyl ring could not improve the inhibition effect of the compounds 7g–7h.
(§2) The HCT116, HCT8, KM12, HCT15, HT29, COLO-205, SW620 cell line was obtained from the National Cancer Institute (Material Transfer Agreement number: 2702–09). DLD1 cell line was obtained from the Korean cell line bank. Cells were cultured in complete Roswell Park Memorial Institute (RPMI) 1640 medium (Hyclone, South Logan, UT, USA) containing 10% fetal bovine serum (Hyclone, South Logan, UT, USA) in an atmosphere of 5% CO2 and 100% humidity at 37 °C. A small interfering RNA (siRNA) duplex targeting human c-Jun and FBXW7 (Genolution, Seoul, Korea) were introduced into cells using Lipofector-EXT (AptaBio, Yongin, Korea), according to the manufacturer’s instructions. As negative controls, cells were incubated with Lipofector-EXT (AptaBio, Yongin, KOR) and a negative siRNA (Genolution, Seoul, Korea).
(§3) Cells (100 μL containing 5000–10,000 cells/well) were incubated in 96 well microtiter plates. After 24 h, drugs were added (100 μL) to each well and the cultures were incubated for 48 h at 37 °C. The cells were then fixed in TCA (50 μL per well). The plates were incubated for a minimum of 1 h or a maximum of 3 h at 4 °C. The liquid was removed from the plate, which was then rinsed five times with water and allowed to dry at room temperature (rt) for approximately 12–24 h. The fixed cells were stained with 100 μL Sulforhodamine B (SRB) solution for 5 min at rt. After staining, the plate was washed three times with 1% glacial acetic acid and dried at rt for approximately 12–24 h. The SRB was then solubilized in 10 mM Tris buffer, and the absorbance was read at 515 nm. The effect of the drugs was expressed as GI50 (50% growth inhibition).

[2] = tested on: HCT116; assay: SRB assay, colon cancer cell growth inhibition; type: cell-based; settings: Homo sapiens, HCT-116
Procedure: as §1, §2, §3

[3] = tested on: HCT15; assay: SRB assay, colon cancer cell growth inhibition; type: cell-based; settings: Homo sapiens, HCT-15, 48 h
Procedure: as §1, §2, §3

[4] = tested on: HCT8; assay: SRB assay, colon cancer cell growth inhibition; type: cell-based; settings: Homo sapiens, HCT-8, 48 h
Procedure: as §1, §2, §3

[5] = tested on: HT29; assay: SRB assay, colon cancer cell growth inhibition; type: cell-based; settings: Homo sapiens, HT-29, 48 h
Procedure: as §1, §2, §3

[6] = tested on: KM12; assay: SRB assay, colon cancer cell growth inhibition; type: cell-based; settings: Homo sapiens, 48 h
Procedure: as §1, §2, §3

[7] = tested on: SW620; assay: SRB assay, colon cancer cell growth inhibition; type: cell-based; settings: Homo sapiens, SW-620, 48 h
Procedure: as §1, §2, §3

[8] = Pharmacokinetics in SD rats; type: in vivo; settings: male, Sprague-Dawley, rat, plasma
Procedure: Sprague–Dawley rats (adult males, 250–300 g) were fasted overnight, and the femoral vein (for iv administration of the compound) and jugular vein (for blood sampling) of each rat were cannulated with polyethylene tubing. The selected compounds dissolved in 30% polyethylene glycol (PEG) in saline were administered either intravenously or orally. At various time points after administration, blood samples (0.5 mL) were collected from the jugular vein, transferred to heparin-coated tubes, centrifuged to separate off the plasma. The plasma was stored at −80 °C until assayed. Compound concentrations in plasma were determined by LC/MS/MS analysis (API4000 mass spectrometer, Applied Biosystem, Waltham, MA, USA). Pharmacokinetic parameters were analyzed using the WinNonlin software program. The area under the curve (AUC) was calculated using the trapezoidal rule extrapolated to infinity. The terminal elimination half-life, systemic clearance, and volume of distribution at steady state were determined. The extent of absolute oral bioavailability (F) was estimated by comparing the AUC values after intravenous and oral administration of the compounds.

[9] = tested on: FBXW7/c-Jun interaction; assay: Immunoprecipitation, ubiquitination and FBXW7/c-Jun interaction; type: cell-based, human; settings: HCT116 and DLD1; DGG200064 50 nM 18 h; MG132 10 μM 6 h
Excerpt: To investigate whether the ubiquitination of c-Jun is suppressed through the inhibition of c-Jun and FBXW7 binding by DGG200064, c-Jun immunoprecipitation was done to observe protein–protein interaction (Figure 4). E3 ligase, such as FBXW7, binds the protein to the ubiquitin chain through covalent bonds and rapidly degrades the protein through 26S proteasome. When treated with MG132 as a proteasome inhibitor, the ubiquitination of c-Jun increased compared to both control HCT116 and DLD1 cells. In contrast, the c-Jun ubiquitination was inhibited by DGG200064. The binding between c-Jun and FBXW7 was reduced with DGG200064 treatment. The FBXW7 protein, also known as CDC4, is a component of the SCF complex ubiquitin ligase and is known as a modulator of several substrates including cyclin E, c-Myc, c-Jun, and Notch. To check the selectivity of DGG200064 towards FBXW7 substrates, the change of c-Jun, cyclin E, and c-Myc by DGG200064 was analyzed. […] Cyclin E immunoprecipitation was done to test whether the ubiquitination of cyclin E by FBXW7 is inhibited by DGG200064 in HCT116 (Figure S2b, Supplementary Materials). There were no changes in cyclin E ubiquitination with DGG200064 treatment.
To identified ubiquitination of c-Jun by DGG200064, HCT116 cells were treated with/without MG132 (10 μM) for 6h, DGG200064 (50 nM) for 18 h. The cell lysate was prepared using RIPA buffer for immunoprecipitation. Each lysate was mixed with antibodies (1 μg/mL) of c-Jun or MYC at 4 °C overnight in immunoprecipitation buffer containing 50 mM Tris-Cl,150 mM NaCl, 1 mM EDTA, 0.5% Triton X-100, pH 7.4, and reacted with 10 μL of protein A/G beads UltraLink Resin (50:50 resin: buffer slurry condition) (Peirce, #35133) for 2 h on RT for precipitation. After reaction and centrifugation at 3000 rpm for 3 min, the immunoprecipitated samples were washed with 500 μL of immunoprecipitation buffer by tapping and centrifuged. The washing was repeated five times before western blotting.

[10] = quoted in docking discussion, cell line not stated there (values match HCT116)

Row | Structure (SMILES) | GI50 [1] | GI50 ([2]; HCT116, SRB, 48 h) | GI50 [3] | GI50 [4] | GI50 [5] | GI50 [6] | GI50 [7] | GI50 [2, 10] | Cmax ([8]; no unit, species or route stated in b12 (7c value equals SD rats PO of Table 3)) | bioavailability ([8]; species and route not stated in b12 (7c value equals SD rats PO of Table 3), read-out: bioavailability (F)) | c-Jun ubiquitination [9]
1 | COc1cc(OC)cc(N2CCN(C(=O)Nc3nc4sc(Cl)cc4nc3OC)CC2)c1 [Compound 7a, N-(6-chloro-2-methoxythieno[2,3-b]pyrazin-3-yl)-4-(3,5dimethoxyphenyl)piperazine-1-carboxamide] | 0.173 µM | 0.344 µM | 0.484 µM | 0.761 µM | 0.408 µM | 0.273 µM | 0.427 µM | ≥ 0.1 µM |  |  | 
2 | COc1cc(F)cc(N2CCN(C(=O)Nc3nc4sccc4nc3OC)CC2)c1 [Compound 7g, 4-(3-Fluoro-5-methoxyphenyl)-N-(2-methoxythieno[2,3-b]pyrazin-3-yl)piperazine-1-carboxamide] | 0.014 µM | 0.045 µM | 0.03 µM | 0.039 µM | 0.057 µM | 0.022 µM | 0.029 µM |  |  |  | 
3 | COc1cc(C)cc(N2CCN(C(=O)Nc3nc4sccc4nc3OC)CC2)c1 [Compound 7f, 4-(3-methoxy-5-methylphenyl)-N-(2-methoxythieno[2,3-b]pyrazin-3-yl)piperazine-1-carboxamide] | 0.028 µM | 0.0019 µM | 0.036 µM | 0.037 µM | 0.021 µM | 0.021 µM | 0.034 µM |  | 0.195 µg/mL | 21.8% | 
4 | CC(C)C[C@@H](C=O)NC(=O)[C@H](CC(C)C)NC(=O)[C@H](CC(C)C)NC(=O)OCc1ccccc1 [MG132, reference compound] (Cbz-Leu-Leu-Leu-aldehyde) |  |  |  |  |  |  |  |  |  |  | increased

More lines, main results first:

Row | GI50 [1] | GI50 ([2]; HCT116, SRB, 48 h) | GI50 [3] | GI50 [4] | GI50 [5] | GI50 [6] | GI50 [7] | GI50 [2, 10] | Cmax ([8]; no unit, species or route stated in b12 (7c value equals SD rats PO of Table 3)) | bioavailability ([8]; species and route not stated in b12 (7c value equals SD rats PO of Table 3), read-out: bioavailability (F)) | Structure (SMILES) | c-Jun ubiquitination [9]
5 | 0.035 µM | 0.071 µM | 0.068 µM | 0.058 µM | 0.035 µM | 0.074 µM | 0.053 µM |  |  |  | CCOc1nc2ccsc2nc1NC(=O)N1CCN(c2cc(OC)cc(OC)c2)CC1 [Compound 7i, 4-(3,5-dimethoxyphenyl)-N-(2-ethoxythieno[2,3-b]pyrazin-3-yl)piperazine-1-carboxamide] | 
6 | 0.04 µM | 0.033 µM | 0.038 µM | 0.059 µM | 0.026 µM | 0.032 µM | 0.038 µM |  |  |  | COc1nc2ccsc2nc1NC(=O)N1CCN(c2cc(C)cc(C)c2)CC1 [Compound 7d, 4-(3,5-Dimethylphenyl)-N-(2-methoxythieno[2,3-b]pyrazin-3-yl)piperazine-1 carboxamide] | 
7 | 0.028 µM | 0.032 µM | 0.042 µM | 0.051 µM | 0.029 µM | 0.038 µM | 0.04 µM |  |  |  | COc1nc2ccsc2nc1NC(=O)N1CCN(c2cc(C)cc(F)c2)CC1 [Compound 7h, 4-(3-Fluoro-5-methylphenyl)-N-(2-methoxythieno[2,3-b]pyrazin-3-yl)piperazine-1-carboxamide] | 
8 | 0.9 µM | 0.244 µM | 0.437 µM | 0.9 µM | 0.342 µM | 0.244 µM | 0.273 µM |  |  |  | COc1nc2cc(Cl)sc2nc1NC(=O)N1CCN(c2cc(C)cc(C)c2)CC1 [Compound 7b, N-(6-chloro-2-methoxythieno[2,3-b]pyrazin-3-yl)-4-(3,5-dimethylphenyl)piperazine-1-carboxamide] | 
9 | 0.287 µM | 0.307 µM | 0.507 µM | 0.269 µM | 0.672 µM | 0.426 µM | 0.288 µM | ≥ 0.1 µM |  |  | COc1nc2ccsc2nc1NC(=O)N1CCN(c2cc(F)cc(F)c2)CC1 [Compound 7e, 4-(3,5-Difluorophenyl)-N-(2-methoxythieno[2,3-b]pyrazin-3-yl)piperazine-1-carboxamide] | 

From publication PMC9143821, “Design and Synthesis of a Novel 4-aryl-N-(2-alkoxythieno [2,3-b]pyrazine-3-yl)-4-arylpiperazine-1-carboxamide DGG200064 Showed Therapeutic Effect on Colon Cancer through G2/M Arrest” (Pharmaceuticals, 2022)
